{"source": "patent US8853187B2", "about": "“Composition comprising bisphosphonates for prevention and/or treatment of metabolic diseases of bones, process for preparing such composition and use thereof” (Gador S.A., priority 2001, dated 2014)", "origin": "cited, not measured here", "settings": "ranking within the group of bisphosphonates, in words"}
{"smiles": "CN(C)CCC(O)(P(=O)(O)O)P(=O)(O)O", "note": "[Olpadronate]", "values": [{"measurement": "solubility relative to other bisphosphonates", "result": "most soluble"}]}
